Test results as given in USRE43712E1, “Methods for assaying for antidepressant therapy markers” (The Board of Trustees of the Uniersity of Illinois, priority 2000, dated 2012).
Marks after values point to notes of the source that are not given here.

What was measured:
Type in all cases: cell-based
Gsα [1] = test: Gsα in Triton-insoluble, caveolin-enriched versus Triton-soluble fraction of C6-2B cells (sucrose density gradient, immunoblot); details: chronic treatment, FIG. 3C
Procedure: (§1) Rat cortex membrane, C6-2B cell membranes, or Triton extracts of each membrane preparation were subjected to SDS-PAGE followed by electrotransfer to polyvinylidene difluoride (PVDF) membrane. The PVDF membrane was incubated with a phosphate-buffered saline/Tween 20 Buffer (140 mM NaCl, […]. 0.1% Tween 20, pH 7.4) and 3% bovine serum albumin. The membrane was then incubated with polyclonal rabbit antisera against the various G protein subunits [RM (Gsα) or 116 (Gi1, Gi2, Gi3α)] at a 1:25,000 (RM) or 1:5,000 (116) dilution (see below for source of antibodies). […] Immunoreactivity was detected with an enhanced chemiluminescence (ECL) western blot detection system (Amersham) in accord with the manufacturer's instructions. The developed autoradiographs were analyzed by densitometry.

Gsα [2] = test: Sequential detergent extraction (Triton X-100 / Triton X-114) of Gsα from C6-2B glioma membranes; details: C6-2B cells, 10 μM, 3 days; mean ± SEM of 4-5 experiments
Procedure: (§2) C6-2B cells (between passages 20 and 40) were grown in 175-cm^2 flasks in Dulbecco's modified Eagle medium, 4.5 g of glucose/L, 10% bovine serum, in a 10% CO2 atmosphere, at 37° C. for 3 days after splitting. […] Male Sprague-Dawley rats weighing 150-200 g were fed ad libitum and maintained in a 12-h light/dark cycle. […] 36:803-838, 1989]. […] Rat cerebral cortex membranes were prepared according to the method of Rasenick et al. [Nature, 294:560-562; 1981].
Membrane proteins were extracted sequentially from C6-2B or rat synaptic membranes as described [Yan et al., J. Neurochem., 66:1489-1495; 1996]. These membranes were stirred on ice in HEPES (15 mM, pH 7.4) containing 1% Triton X-100 for 60 min followed by centrifugation at 100,000 g for 60 min at 4° C. The supernatant was reserved (Triton X-100 extract), and the resulting pellet was resuspended in Tris (15 mM, pH 7.4) containing 1.4% Triton X-114 and 150 mM NaCl. The solution was stirred for 60 min at 4° C. and centrifuged for 30 min at 100,000 g in the cold. The supernatant was saved (Triton X-114 extract). These supernatants and remaining pellet (remainder) were subjected to sodium dodecyl sulfate (SDS)-polyacrylamide gel electophoresis (PAGE) using 10% gels. All of the extraction buffers contained 1 mM PMSF and 1 mM EGTA.
as §1
A membrane-enriched fraction was prepared (see Example 1), and membrane proteins were extracted sequentially with Triton X-100 (Tx 100) and Triton X-114 (Tx 114). Equal amounts of these extracts were subjected to SDS-PAGE and transferred to PVDF membrane. The long and short forms of Gsα (GsαL and GsαS) from different fractions were identified by immunodetection.
Experiments were conducted according to the method set forth in Example 1 to assess the effects of different antidepressants on the detergent extraction of Gsα from C6-2B glioma cells.
The ratios of the percentage of Gsα extracted by the two detergents in the treatment versus control groups were compared and are set forth in Table 2 as percentage of control (i.e., each Triton X-100 extract was compared with the untreated Triton X-100 extract; the same was done for Triton X-114 extracts as well as the remainder).

Gsα [3] = test: Content of G protein (Gsα) in C6-2B glioma membranes after antidepressant treatment, quantitative immunoblot
Procedure: as §2, §1
Purified recombinant GsαL (long form of Gsα; 1-10 ng/lane) was subjected to SDS-PAGE and transferred to PVDF membranes. The blots were incubated with antibody against Gsα (RM) and processed by ECL. Films were analyzed on a Molecular Dynamics densitometer, and the volume of each band was quantified and used to make a standard curve.
Experiments were conducted to determine whether Gsα is quantitatively altered by antidepressant therapy. For quantification of Gsα in C6-2B membrane, a standard curve was created using purified recombinant […]. Pure Gsα (1-20 ng/well) was subjected to SDS-PAGE and transferred to a PVDF membrane, Gsα was immunodetected by antisera against the as subunit of G protein.
To estimate the effect of antidepressant treatment on the amount of Gsα in C6-2B membranes, equal amounts (10 μg) of C6-2B glioma membrane proteins in control and chronically (3 days) antidepressant-treated groups were subjected to SDS-PAGE. Gsα was immunodetected by antisera against the αs subunit of G protein.

[4] = C6-2B membranes, 10 μM drug for 3 days, mean ± SEM of 4-5 experiments

Row | Compound | Decrease of the amount of Gsα in the caveolin-enriched Triton-insoluble fraction, normalized to equal caveolin (Gsα [1]) | GsαL in Triton X-114 extract, % of corresponding value in control group (Gsα [2]) | GsαS in Remainder, % of corresponding value in control group (Gsα [2]) | GsαS in Triton X-100 extract, % of corresponding value in control group (Gsα [2]) | GsαS in Triton X-114 extract, % of corresponding value in control group (Gsα [2]) | Quantity of G proteins in membrane, treated versus control (Gsα [3]; C6-2B cells, 10 μM, 3 days, p>0.05) | G protein amount, Total (Gsα [3]; [4]) | G protein amount, αsL (Gsα [3]; [4]) | G protein amount, αsS (Gsα [3]; [4])
1 | CNCCCN1c2ccccc2CCc2ccccc21 [Desipramine, desipramine] | ~50% | – | – | – | – | – | – | – | –
2 | CNCCC(Oc1ccc(C(F)(F)F)cc1)c1ccccc1 (stereo not drawn) [Fluoxetine, fluoxetine] | – | 84.4 ± 2.9^b % | 99.7 ± 3.1% | 215.9 ± 30.9^a % | 92.2 ± 1.3^b % | no significant differences | 12.49 ± 0.67 ng/10 ug of membrane protein | 7.23 ± 0.56 ng/10 ug of membrane protein | 5.65 ± 0.74 ng/10 ug of membrane protein
